This note sets out measurements from US20150087673A1, “METHODS FOR USING AND BIOMARKERS FOR AMPK-ACTIVATING COMPOUNDS” (RIGEL PHARMACEUTICALS, INC., priority 2013, published 2015).

The subject of the assay is AMPK. The assay can be described thus: AMPK activation assay (enzyme-linked immunosorbent assay). Format: cell-based. Put shortly: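 Activation by each compound is measured using a conventional commercial immunoassay kit.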
With `N#Cc1ccc(CN2CCC3(CCN(C(=O)c4ccc(C(=O)N5CCN(Cc6ccc(F)cc6)CC5)cn4)CC3)C2)cc1` [Compound 15, 4-((8-(5-(4-(4-fluorobenzyl)piperazine-1-carbonyl)picolinoyl)-2,8-diazaspiro[4.5]decan-2-yl)methyl)benzonitrile], the EC50 (as a rule, the concentration at which the effect is half-maximal) lay in the range of 1000 to 5000 nM.
For `N#Cc1ccc(CN2CCC(NC(=O)c3ccc(C(=O)N4CCC(Oc5ccc(C#N)cc5)CC4)nn3)CC2)cc1` [Compound 388, N-(1-(4-cyanobenzyl)piperidin-4-yl)-6-(4-(4-cyanophenoxy)piperidine-1-carbonyl)pyridazine-3-carboxamide] the value was below 500 nM.
The figure for `N#Cc1ccc(CN2CCC(NC(=O)c3ccc(Nc4ccc(Cc5ccccc5)cc4)cn3)CC2)cc1` [Compound 108, 5-(4-benzylphenylamino)-N-(1-(4-cyanobenzyl)piperidin-4-yl)picolinamide] is 500 to 1000 nM.
The figure for `N#Cc1ccc(CN2CCC(NC(=O)c3ccc(C(=O)N4CCN(c5ccc(F)cc5)CC4)cn3)CC2)cc1` [Compound 341, N-(1-(4-cyanobenzyl)piperidin-4-yl)-5-(4-(4-fluorophenyl)piperazine-1-carbonyl)picolinamide] is below 500 nM; for `N#Cc1ccc(OC2CCN(C(=O)c3ccc(C(=O)N[C@H]4CC[C@@H](Oc5ccc(F)cc5)CC4)cn3)CC2)cc1` [Compound 324, 6-(4-(4-cyanophenoxy)piperidine-1-carbonyl)-N-((cis)-4-(4-fluorophenoxy)cyclohexyl)nicotinamide] it is below 500 nM.
Consider `CS(=O)(=O)c1ccc(C(=O)C2CCN(C(=O)c3ccc(C(=O)NC4CCN(Cc5ccc(C#N)cc5)CC4)nc3)CC2)cc1` [Compound 228, N-(1-(4-cyanobenzyl)piperidin-4-yl)-5-(4-(4-(methylsulfonyl)benzoyl)piperidine-1-carbonyl)picolinamide], for which the EC50 was below 500 nM.
For `O=C(NC1CCN(CC2CCCCC2)CC1)c1ccc(C(=O)N2CCN(Cc3ccc(F)cc3)CC2)cn1` [Compound 13, N-(1-(cyclohexylmethyl)piperidin-4-yl)-5-(4-(4-fluorobenzyl)piperazine-1-carbonyl)picolinamide] the value was 1000 to 5000 nM; for `CC(=O)c1ccc(Oc2ccc(NC(=O)c3ccc(C(=O)N4CCN(c5ccc(S(=O)(=O)C(C)C)cc5)CC4)nc3)cn2)cc1` [Compound 489, N-(6-(4-acetylphenoxy)pyridin-3-yl)-6-(4-(4-(isopropylsulfonyl)phenyl)piperazine-1-carbonyl)nicotinamide], below 500 nM.
Molecule `COc1ccc(C(=O)C2CCN(C(=O)c3ccc(C(=O)N[C@H]4CC[C@@H](Oc5ccc(F)cc5)CC4)nc3)CC2)cc1` [Compound 311, N-((cis)-4-(4-fluorophenoxy)cyclohexyl)-5-(4-(4-methoxybenzoyl)piperidine-1-carbonyl)picolinamide] registered an EC50 below 500 nM.
The figure for `N#Cc1ccc(CN2CCC(NC(=O)c3ccc(C(=O)N4CCC(C(=O)c5ccc(F)cc5F)CC4)nc3)CC2)cc1` [Compound 346, N-(1-(4-cyanobenzyl)piperidin-4-yl)-6-(4-(2,4-difluorobenzoyl)piperidine-1-carbonyl)nicotinamide] is below 500 nM; for `N#Cc1ccc(CN2CCC(C(=O)Nc3ccc(C(=O)N4CCC(Oc5ccc(F)cc5)CC4)cn3)CC2)cc1` [Compound 173, 1-(4-cyanobenzyl)-N-(5-(4-(4-fluorophenoxy)piperidine-1-carbonyl)pyridin-2-yl)piperidine-4-carboxamide] it is below 500 nM; for `Cc1cccc(Oc2ccc(NC(=O)c3ccc(C(=O)N4CCN(Cc5ccc(F)cc5)CC4)cn3)cc2)c1` [Compound 58, 5-(4-(4-fluorobenzyl)piperazine-1-carbonyl)-N-(4-(3-methylphenoxy)phenyl)picolinamide] it is below 500 nM.
For `COc1ccc(C(=O)C2CCN(C(=O)c3ccc(C(=O)NC4CCNCC4)cn3)CC2)cc1` [Compound 445, 6-(4-(4-methoxybenzoyl)piperidine-1-carbonyl)-N-(piperidin-4-yl)nicotinamide] the value was above 10000 nM.
For the molecule `N#Cc1ccc(CNC(=O)c2cccc(-c3ccc(C(=O)N4CCN(Cc5ccc(F)cc5)CC4)cn3)c2)cc1` [Compound 42, (6-(3-(4-cyanobenzylcarbamoyl)phenyl)pyridin-3yl)(4-(4-fluorobenzyl)piperazin-1-yl)methanone], the EC50 fell in the range of 1000 to 5000 nM.
For `O=C(c1ccc(N2CCC(Oc3ccc(C(F)(F)F)cc3)CC2)nc1)N1CCN(Cc2ccc(F)cc2)CC1` [Compound 187, (4-(4-fluorobenzyl)piperazin-1-yl)(6-(4-(4-(trifluoromethyl)phenoxy)piperidin-1-yl)pyridin-3-yl)methanone] the value was 1000 to 5000 nM; for `COc1ccc(O[C@H]2CC[C@@H](NC(=O)c3ccc(C(=O)N4CCC(C(=O)c5ccc(OC)cc5)CC4)cn3)CC2)cc1` [Compound 184, 5-(4-(4-methoxybenzoyl)piperidine-1-carbonyl)-N-((cis)-4-(4-methoxyphenoxy)cyclohexyl)picolinamide], below 500 nM.
For `N#Cc1ccc(CC2CCC(NC(=O)c3cccc(C(=O)N4CCN(Cc5ccc(F)cc5)CC4)n3)CC2)cc1` (centres unmarked) [Compound 99, N-(4-(4-cyanobenzyl)cyclohexyl)-6-(4-(4-fluorobenzyl)piperazine-1-carbonyl)picolinamide] the value was 5000 to 10000 nM.
For `COc1ccc(CN2CCC(NC(=O)c3ccc(C(=O)N4CCN(Cc5ccc(C#N)cc5)CC4)cn3)CC2)cc1` [Compound 285, 5-(4-(4-cyanobenzyl)piperazine-1-carbonyl)-N-(1-(4-methoxybenzyl)piperidin-4-yl)picolinamide] the value was below 500 nM.
As for `N#Cc1ccc(CN2CCC(NC(=O)c3ccc(C(=O)N4CCC(Oc5ccc(F)cc5F)CC4)cn3)CC2)cc1` [Compound 282, N-(1-(4-cyanobenzyl)piperidin-4-yl)-5-(4-(2,4-difluorophenoxy)piperidine-1-carbonyl)picolinamide], the EC50 is below 500 nM.
The figure for `COc1ccc(C(=O)C2CCN(C(=O)c3ccc(C(=O)NC4CCC(Oc5ccc(C#N)cc5)CC4)cn3)CC2)cc1` (centres unmarked) [Compound 315, N-((1s,4s)-4-(4-cyanophenoxy)cyclohexyl)-6-(4-(4-methoxybenzoyl)piperidine-1-carbonyl)nicotinamide] is below 500 nM; for `Cc1nc(Oc2ccc(C#N)cc2)ccc1NC(=O)c1ccc(C(=O)N2CCC(C(=O)c3ccc(F)cc3F)CC2)nc1` [Compound 479, N-(6-(4-cyanophenoxy)-2-methylpyridin-3-yl)-6-(4-(2,4-difluorobenzoyl)piperidine-1-carbonyl)nicotinamide] it is below 500 nM; for `O=C(NC1CCN(Cc2ccccc2)CC1)c1ccc(C(=O)N2CCN(Cc3ccccc3)CC2)nc1` [Compound 74, 6-(4-benzylpiperazine-1-carbonyl)-N-(1-benzylpiperidin-4-yl)nicotinamide] it is below 500 nM.
The figure for `COc1ccc(C(=O)C2CCN(C(=O)c3ccc(C(=O)N[C@@H]4CCN(Cc5ccc(OC(F)(F)F)cc5)C[C@H]4F)cn3)CC2)cc1` (relative stereo) [Compound 350, N-((trans)-3-fluoro-1-(4-(trifluoromethoxy)benzyl)piperidin-4-yl)-6-(4-(4-methoxybenzoyl)piperidine-1-carbonyl)nicotinamide] is below 500 nM.
`O=C(Nc1ccc(Oc2ccc(F)cc2)nc1)c1ccc(C(=O)N2CCC(C(=O)c3ccc(N4CCOCC4)cc3)CC2)cn1` [Compound 379, N-(6-(4-fluorophenoxy)pyridin-3-yl)-5-(4-(4-morpholinobenzoyl)piperidine-1-carbonyl)picolinamide] came in with an EC50 below 500 nM.
`COc1ccc(C(=O)C2CCN(C(=O)c3ccc(C(=O)NC4CCN(Cc5ccc(F)cc5)CC4)cn3)CC2)cc1` [Compound 317, N-(1-(4-fluorobenzyl)piperidin-4-yl)-6-(4-(4-methoxybenzoyl)piperidine-1-carbonyl)nicotinamide] yielded an EC50 below 500 nM.
The figure for `O=C(c1ccc(C(=O)N2CCN(Cc3ccc(F)cc3)CC2)nc1)N1CCN(Cc2ccc(F)cc2)CC1` [Compound 3, pyridine-2,5-diylbis((4-(4-fluorobenzyl)piperazin-1-yl)methanone)] is 500 to 1000 nM; for `N#Cc1ccc(CN2CCC(NC(=O)c3ccc(NC4CCN(c5ccccc5)CC4)cn3)CC2)cc1` [Compound 126, N-(1-(4-cyanobenzyl)piperidin-4-yl)-5-(1-phenylpiperidin-4-ylamino)picolinamide] it is below 500 nM.
The figure for `CC(C)(c1ccccc1)N1CCN(C(=O)c2ccc(C(=O)NC3CCN(Cc4ccc(C#N)cc4)CC3)nc2)CC1` [Compound 133, N-(1-(4-cyanobenzyl)piperidin-4-yl)-5-(4-(2-phenylpropan-2-yl)piperazine-1-carbonyl)picolinamide] is below 500 nM.
The molecule `N#Cc1ccc(O[C@H]2CC[C@H](NC(=O)c3ccc(C(=O)N4CCC(C(=O)c5ccc(F)cc5)CC4)cn3)CC2)cc1` [Compound 168, N-((trans)-4-(4-cyanophenoxy)cyclohexyl)-5-(4-(4-fluorobenzoyl)piperidine-1-carbonyl)picolinamide] showed an EC50 below 500 nM.
The figure for `N#Cc1ccc(CN2CCC(NC(=O)c3ccc(C(=O)N4CCC(Oc5ccc(S(F)(F)(F)(F)F)cc5)CC4)nc3)CC2)cc1` [Compound 493, N-(1-(4-cyanobenzyl)piperidin-4-yl)-6-(4-(4-(pentafluorosulfanyl)phenoxy)piperidine-1-carbonyl)nicotinamide] is below 500 nM; for `CS(=O)(=O)c1ccc(C(=O)C2CCN(C(=O)c3ccc(C(=O)NC4CCN(Cc5ccc(N6CCCC6)cc5)CC4)nc3)CC2)cc1` [Compound 233, 5-(4-(4-(methylsulfonyl)benzoyl)piperidine-1-carbonyl)-N-(1-(4-(pyrrolidin-1-yl)benzyl)piperidin-4-yl)picolinamide] it is below 500 nM.
The figure for `CN1CCN(c2ccc(NC(=O)c3ccc(C(=O)N4CCN(Cc5ccc(F)cc5)CC4)cn3)cc2)CC1` [Compound 41, 5-(4-(4-fluorobenzyl)piperazine-1-carbonyl)-N-(4-(4-methylpiperazin-1-yl)phenyl)picolinamide] is above 10000 nM.
